Results taken from US7750150B2, “Process for producing acid adduct salt of polyacidic base compound” (Kowa Co., Ltd., priority 2003, dated 2010).
Like-named read-outs stand apart in the source and are kept apart here.

How the values were obtained:
[1] = Solubility of the acid addition salts; conditions: for water solubility: statement in words, background art
[2] = Hygroscopicity (weight change on storage at 25° C. and 83% relative humidity); format: physicochemical; conditions: weight change after 4 days at 25° C. and 83% relative humidity
Experimental: (§1) A weight change of each acid addition salt was measured after storing it for 4 days under conditions of 25° C. and 83% relative humidity. • TG: Thermogravimetric Analysis • DSC: Differential Scanning Calorimetry

[3] = Thermal stability (HPLC purity after storage relative to before storage); format: physicochemical
Experimental: (Note) Thermal Stability:
The purity of each acid addition salt of the polyacidic basic compound stored at 80° C. for 10 days was determined by HPLC measurement relative to its purity before the storage with the proviso that the disulfate 1.5-water adduct and the dimaleate were stored at 60° C. for 7 days before their storage at 80° C. for 10 days.

[4] = TG (thermogravimetric analysis); format: physicochemical; conditions: weight change on heating
Source text: (§2) A powder X-ray diffraction pattern of 2-[4-[2-(benzimidazol-2-ylthio)ethyl]piperazin-1-yl]-N-[2,4-bis(methylthio)-6-methyl-3-pyridyl]acetamide monohydrochloride 0.9-water adduct is illustrated in FIG. 1, and the results of its TG (thermogravimetric analysis)-DSC (differential scanning calorimetry) measurements are shown in FIG. 2. Further, a powder X-ray diffraction pattern of 2-[4-[2-(benzimidazol-2-ylthio)ethyl]piperazin-1-yl]-N-[2,4-bis(methylthio)-6-methyl-3-pyridyl]acetamide tetrahydrochloride 2-water adduct is illustrated in FIG. 3, and the results of its TG-DSC measurements are shown in FIG. 4. A powder X-ray diffraction pattern of 2-[4-[2-(benzimidazol-2-ylthio)ethyl]piperazin-1-yl]-N-[2,4-bis(methylthio)-6-methyl-3-pyridyl]acetamide disulfate 1.5-water adduct is illustrated in FIG. 5, and the results of its TG-DSC measurements are shown in FIG. 6. A powder X-ray diffraction pattern of 2-[4-[2-(benzimidazol-2-ylthio)ethyl]piperazin-1-yl]-N-[2,4-bis(methylthio)-6-methyl-3-pyridyl]acetamide monosulfate 4-water adduct is illustrated in FIG. 7, and the results of its TG-DSC measurements are shown in FIG. 8. A powder X-ray diffraction pattern of 2-[4-[2-(benzimidazol-2-ylthio)ethyl]piperazin-1-yl]-N-[2,4-bis(methylthio)-6-methyl-3-pyridyl]acetamide monosulfate is illustrated in FIG. 9, and the results of its TG-DSC measurements are shown in FIG. 10. A powder X-ray diffraction pattern of 2-[4-[2-(benzimidazol-2-ylthio)ethyl]piperazin-1-yl]-N-[2,4-bis(methylthio)-6-methyl-3-pyridyl]acetamide dimaleate is illustrated in FIG. 11, and the results of its TG-DSC measurements are shown in FIG. 12.
as §1

[5] = pH of aqueous solution; format: physicochemical
[6] = Powder X-ray diffraction (degree of crystallinity); format: physicochemical
Source text: as §2

[7] = Oral absorption; format: in vivo; conditions: statement in words, background art
[8] = physchem
[9] = stored at 60° C. for 7 days before storage at 80° C. for 10 days
[10] = listed as 2-[4-[2-(benzimidazol-2-ylthio)ethyl]piperazin-1-yl]-N-[2,4-bis(methylthio)-6-me
[11] = listed as tetrahydrochloride 2-water adduct

SMILES	Solubility [1]	Hygroscopicity [2]	Thermal stability ([3]; stored at 80° C. for 10 days)	TG [4]	Powder X-ray [6]	pH of 1% aq. Solution [5]	further results
CSc1cc(C)nc(SC)c1NC(=O)CN1CCN(CCSc2nc3ccccc3[nH]2)CC1.CSc1cc(C)nc(SC)c1NC(=O)CN1CCN(CCSc2nc3ccccc3[nH]2)CC1.O.O.O.O=S(=O)(O)O.O=S(=O)(O)O.O=S(=O)(O)O.O=S(=O)(O)O [Disulfate 1.5-water adduct, 2-[4-[2-(benzimidazol-2-ylthio)ethyl]piperazin-1-yl]-N-[2,4-bis(methylthio)-6-methyl-3-pyridyl]acetamide disulfate 1.5-water adduct]	>1000 mg/mL	10%	–	No change until	Low	2.00	Thermal stability [3, 9]: 99.6%
Cc1cc(OCC(F)(F)F)c(NC(=O)CN2CCN(CCSc3nc4cc(F)c(F)cc4[nH]3)CC2)c(OCC(F)(F)F)n1.Cl	–	–	–	–	–	–	melting point: 186 to 187 °C
CSc1cc(C)nc(SC)c1NC(=O)CN1CCN(CCSc2nc3ccccc3[nH]2)CC1 [2-[4-[2-(benzimidazol-2-ylthio)ethyl]piperazin-1-yl]-N-[2,4-bis(methylthio)-6-methyl-3-pyridyl]acetamide]	–	–	–	–	–	–	water solubility [1]: too low; oral absorption [7]: little well
CSc1cc(C)nc(SC)c1NC(=O)CN1CCN(CCSc2nc3ccccc3[nH]2)CC1.O=C(O)/C=C\C(=O)O.O=C(O)/C=C\C(=O)O [Dimaleate, 2-[4-[2-(benzimidazol-2-ylthio)ethyl]piperazin-1-yl]-N-[2,4-bis(methylthio)-6-methyl-3-pyridyl]acetamide dimaleate]	–	2%	–	–	Low	2.62	Solubility [8]: 15 mg/mL; Thermal stability [3, 9]: 93.1%

The next lines start with results.

Solubility [1]	Hygroscopicity [2]	Thermal stability ([3]; stored at 80° C. for 10 days)	TG [4]	Powder X-ray [6]	pH of 1% aq. Solution [5]	SMILES	further results
5 mg/mL	None	99.4%	Decreased 10%	–	–	CSc1cc(C)nc(SC)c1NC(=O)CN1CCN(CCSc2nc3ccccc3[nH]2)CC1.O.O.O.O.O=S(=O)(O)O [Monosulfate 4-water adduct, 2-[4-[2-(benzimidazol-2-ylthio)ethyl]piperazin-1-yl]-N-[2,4-bis(methylthio)-6-methyl-3-pyridyl]acetamide monosulfate 4-water adduct]	pH of aq. Solution ([5]; 0.5% aq. solution): 3.2 (0.5%)
0.5 mg/mL	None	99.2%	No change until	–	–	CSc1cc(C)nc(SC)c1NC(=O)CN1CCN(CCSc2nc3ccccc3[nH]2)CC1.Cl.O [Monohydrochloride 0.9-water adduct, 2-[4-[2-(benzimidazol-2-ylthio)ethyl]piperazin-1-yl]-N-[2,4-bis(methylthio)-6-methyl-3-pyridyl]acetamide monohydrochloride 0.9-water adduct]	Hygroscopicity [2, 10]: no hygroscopicity; Thermal stability ([3]; stored at 80° C. for 10 days, listed as 2-[4-[2-(benzimidazol-2-ylthio)ethyl]piperazin-1-yl]-N-[2,4-bis(methylthio)-6-me): excellent in thermal stability; TG [4, 10]: without any substantial weight change; Powder X-ray [6, 10]: high degree of crystallinity; pH of aq. Solution ([5]; 0.05% aq. solution): 5.2 (0.05%)
200 mg/mL	15%	–	No change until	Low	–	CSc1cc(C)nc(SC)c1NC(=O)CN1CCN(CCSc2nc3ccccc3[nH]2)CC1.O=S(=O)(O)O [Monosulfate, 2-[4-[2-(benzimidazol-2-ylthio)ethyl]piperazin-1-yl]-N-[2,4-bis(methylthio)-6-methyl-3-pyridyl]acetamide monosulfate]	pH of aq. Solution ([5]; 0.5% aq. solution): 3.2 (0.5%)
>1000 mg/mL	10%	98.5%	Gradual removal	Low	1.97	CSc1cc(C)nc(SC)c1NC(=O)CN1CCN(CCSc2nc3ccccc3[nH]2)CC1.Cl.Cl.Cl.Cl.O.O [Tetrahydrochloride 2-water adduct, 2-[4-[2-(benzimidazol-2-ylthio)ethyl]piperazin-1-yl]-N-[2,4-bis(methylthio)-6-methyl-3-pyridyl]acetamide tetrahydrochloride 2-water adduct]	water solubility [1]: substantially improved; Hygroscopicity [2, 11]: high hygroscopicity; oral absorption [7]: substantially improved; Powder X-ray [6, 11]: low degree of crystallinity
